Experimental findings from patent publication US4539208A, “Combination of thienamycin-type antibiotics with dipeptidase inhibitors” (Merck & Co., Inc., priority 1981, dated 1985) are described below.

One data set is described as follows: in vivo. More on the design: species or system dog (male beagle). Conditions: dog, iv, 5 mg/kg. As to the method: A male beagle was used for a study of the effect of dipeptidase inhibitors on the urinary recovery of N-formimidoyl thienamycin. In a control study, the dog was given 5 mg/kg IV of the N-formimidoyl thienamycin without inhibitor. A second experiment used the same amount of N-formimidoylthienamycin, but also administered Z-2-isovaleramido-2-butenoic acid in 3 doses, each providing 20 mg/kg of the compound. The first dose was administered just after injection of the N-formimidoylthienamycin, the second at 40 min. and the third at 60 min. […]

The test system of a further data set is Staphalococcus aureus. The data set is described as follows: Systemic efficacy of thienamycin with co-administered inhibitor, Staphylococcus aureus infection in mouse. The format is in vivo.
A short description of data set [1]: Urinary recovery of thienamycin co-administered with dipeptidase inhibitor in the mouse. The format is in vivo, mouse (Charles River CD, female). Conditions: urine, iv, Table II, control, thienamycin 10 mg/kg alone. Here is the method:
In addition to this in vitro screen procedure, an in vivo screen was followed to measure the test compound's ability to inhibit metabolism as reflected by increase in urinary recovery of thienamycin from the mouse. The procedure involves co-administration of the test compound by the intravenous or subcutaneous route at a dose-rate of 10-100 mg/kg, with 10 mg/kg thienamycin. Thienamycin recovery in the urine over a 4 hour period is then compared with its recovery in a control group to which test compound was not co-administered.
Urinary recovery of thienamycin was measured in all cases with the use of a cylinder or disc diffusion assay, conducted in a manner described in U.S. Pat. No. 3,950,357. This bioassay, with Staphylococcus aureus ATCC 6538 as the test organism, has a useful response range from 0.04 μg/ml to 3.0 μg/ml.
An in vivo assay on the mouse was conducted as follows: 20 g Charles River CD, female mice were injected subcutaneously with the chosen dose of the chemical inhibitor. About two minutes later, the dose of thienamycin was given intravenously. A control of thienamycin above was also conducted. The level of thienamycin in the urine as a % of dose was measured using a bioassay technique. The two test compound numbers are those from Table I. Compound 7 is Z-2-isovaleramido-2-butenoicacid; compound 10 is Z-2-cyclopropylcarboxamido-2-butenoic acid. […]

The compound `C[C@@H](O)[C@H]1C(=O)N2C(C(=O)O)=C(SCCN=CN)C[C@H]12` [N-formimidoyl thienamycin, N-Formimidoyl thienamycin] came in with a dose excreted at 3 h in the data set “in vivo” of 7.8%.
`C[C@@H](O)[C@H]1C(=O)N2C(C(=O)O)=C(SCCN)C[C@H]12` [Thienamycin]: the ED50 (as a rule, the dose that gives a 50% effect, or the effect in half of the subjects) in the data set on Staphalococcus aureus (THM +100 mg/kg inhibitor (Z-2-isovaleramido-2-butenoic acid)) came to 0.06 mg/kg; with Staphalococcus aureus (THM alone), 0.2 mg/kg. The dose excreted at 4 h in data set [1] was 25 to 30%.
